We go through 22 molecules from EP0364581A1, “METHOD OF STERILIZING PLANT POLLEN” (VSESOJUZNY NAUCHNO-ISSLEDOVATELSKY INST. SELSKOKHOZYAISTV. …, priority 1988, dated 1989).

Molecules are shown by their SMILES.

What all share (experiment): field test of gametocidal activity (sterilisation of anthers)
Format in all cases: in vivo

The subject of test [1] is Tritikale der Sorte PRAG-109. As to conditions: V. Periode, 1%ige wäßrige Emulsion, 10 kg/ha; for Prozentsatz des Ansetzens der Körner bei freier Bestäubung: control = 100. From the text: (§1) Die gametozide Aktivität der erfindungsgemäßen Sterilisationsmittel war in Feldversuch in verschiedenen bodenklimatischen Zonen mit Teilstücken von 10 m^2 Größe in drei-- bis viermaliger Wiederholung nachgewiesen. Jedes Sterilisationsmittel wurde mindestens 5 Jahre lang geprüft.
(§2) Die Entwicklung der Perioden der Organogenese wird zytologisch überwacht. Die Behandlung von Pflanzen mit dem Sterilisationsmittel erfolgt am Anfang der fünften Periode der Organogenese nach Kupermann.
(§3) Mit dem Ahrenschieben verwirklicht man die Isolierung von Hauptähren und anderen Stockwerken in Pergamentbeuteln. Bei Weizen und Tritikale werden Einzelisolatoren verwendet. Bei Roggen schließt man je 1 Ähre von 5 bis 7 verschiedenen nebeneinander befindlichen Pflanzen in einen gemeinsamen Isolator ein. Bei Hirse wird jede Rispe getrennt isoliert. Der Sterilitätsprozentsatz (X) für Weizen, Roggen, Tritikale und Hirse wird nach der Formel [formula]
(§4) Samen von unbehandelten Kontrollpflanzen ermittelt.
(§5) Die Kornzahl in nicht isolierten Ähren von Kontrollpflanzen wird bedingt für 100% Ansetzen bei freier Bestäubung angenommen.
(§6) Um zuverlässige Angaben zu erhalten, verwendet man 20 bis 25 Isolatoren jeder Wiederholung für Weizen und Tritikale, 10 bis 15 Isolatoren jeder Wiederholung für Roggen und Hirse.
Pflanzen Tritikale der Sorte PRAG-109 werden in der V. Periode der Organogenese (nach Kupermann) mit einer 1%igen wäßrigen Emulsion von Phthalsäuredibutylester, Phthalsäurediäthylester, Phthalsäuredihexylester, Phthalsäurediisobutylester, Kaliumsalz der 2-Methyl-3-zyklohexenkarbon- säure, 2-Methyl-3-zyklohexenkarbonsäuremethylester behandelt. Die Emulsion enthält 0,01 Masse% Dimethylsulfoxid und 0,1 Masse% C12C14- Kalziumalkylbenzolsulfonat. Der Verbrauch an Präparat beträgt 10 kg/ha. Als Kontrolle dienen Pflanzen, behandelt mit einem Verdünner ohne Sterilisationsmittel. […]
In allen Fällen dienen als Kontrolle Pflanzen, behandelt mit einem Verdünner ohne Sterilisationsmittel. Die Prüfergebnisse sind in der Tabelle 20 angeführt. […] Periode der Organogenese erhalten.

Test [2] relates to diploidem Roggen Sorte Kharkovskaya 55. As to conditions: V. und VI. Periode, 1%ige wäßrige Emulsion, 6 kp/ha; for Prozentsatz des Ansetzens der Körner bei freier Bestäubung: control = 100.
Source text: as §1, §2, §3, §4, §5, §6
Pflanzen von diploidem Roggen Sorte Kharkovskaya 55 werden in der V. und VI. Periode der Organogenese (nach Kupermann) mit einer 1%igen wäßrigen Emulsion von Phthalsäuredibutylester, Phthalsäurediisobutylester, Phthalsäurediallylester, Phthalsäuredihexylester, 2-Methyl-3-zyklohexen- karbonsäuremethylester, Natriumsalz der 2-Methyl-3-zyklohex- enkarbonsäure behandelt. Die Emulsion enthält 0,01 Masse% Dimethylformamid und 0,1 Masse% C12C14-Kalziumalkylbenzolsulfonat.
Der Verbrauch an Präparat beträgt 6 kp/ha. Als Kontrolle dienen Pflanzen, benandelt mit einem Verdünner ohne Sterilisationsmittel.

The test system of test [3] is diploidem Roggen Sorte Voskhod 2. Conditions: V. Periode, 1%ige wäßrige Emulsion, 10 kg/ha; for Prozentsatz des Ansetzens der Körner bei freier Bestäubung: control = 100.
Source text: as §1, §2, §3, §4, §5, §6
Pflanzen von diploidem Roggen Sorte Voskhod 2 werden in der V. Periode der Organogenese (nach Kupermann) mit einer l%igen wäßrigen Emulsion von Phthalsäurediäthylester, Phthalsaurediisobutylester, Kaliumsalz der 2-Methyl-3-zyklohexen- karbonsäure, Ammoniumsalz der 2-Methyl-3-zyklohexenkarbon- säure, 2-Methyl-3-zyklohexenkarbonsäuremethylester, Phthalsaurediallylester behandelt.
Die Emulsion enthält 0,01 Masse% Dodezylsulfat und 0,1 Masse% C12-C14-Kalziumalkylbenzolsulfonat. Der Verbrauch an Präparat beträgt 10 kg/ha, Als Kontrolle dienen Pflanzen, behandelt mit einem Verdünner ohne Sterilisationsmittel.

Test [4] has as its system Hirse Sorte K-9693 Kormovoe I. As to conditions: V. Periode, 1%ige wäßrige Emulsion, 8 kg/ha; for Prozentsatz des Ansetzens der Körner bei freier Bestäubung: control = 100.
Source text: as §1, §2, §3, §4, §5, §6
Pflanzen der Hirse Sorte K-9693 Kormovoe I werden in der V. Periode der Organogenese (nach Kupermann) mit einer 1%igen wäßrigen Emulsion von Ammoniumsalz der 2-Methyl-3-zyklo- nexenkarbonsäure, Phthalsäuredipropylester, Phthalsäuredibutylester, Phthalsäurediisobutylester, 2-Methyl-3-zyklo- hexenkarbonsäuremethylester, Phthalsäuredihexylester behandelt. Die Emulsion enthält 0,01 Masse% Dodezylsulfat und 0,1 Masse% C12-C14-Kalziumalkylbenzolsulfonat. Der Verbrauch an Präparat beträgt 8 kg/ha. Als Kontrolle dienen Pflanzen, behandelt mit einem Verdünner ohne Sterilisationsmittel. Die Prüfergebnisse sind in der Tabelle 18 angeführt. […] Periode der Organogenese erhalten.

As for `CCCCOC(=O)c1ccccc1C(=O)OCCCC` [Beispiel 37, Phthalsäuredibutylester], in test [1], the “Kornzahl der Ähre bei freier Bestäubung” value is listed as 62,1, the “Kornzahl der Ähre im Isolator” value was 0,1, the “Prozentsatz der Sterilität” value is recorded as 99,8% and the “Prozentsatz des Ansetzens der Körner bei freier Bestäubung” value is 90,0%.

Consider `CCOC(=O)c1ccccc1C(=O)OCC` [Beispiel 38, Phthalsäurediäthylester], for which, in test [1], the “Kornzahl der Ähre bei freier Bestäubung” value is reported as 60,8, the “Kornzahl der Ähre im Isolator” value is reported as 0,8, the “Prozentsatz der Sterilität” value was 98,7% and the “Prozentsatz des Ansetzens der Körner bei freier Bestäubung” value is on record as 88,1%.

In the case of `CCCCCCOC(=O)c1ccccc1C(=O)OCCCCCC` [Beispiel 39, Phthalsäuredihexylester], in test [1], the “Kornzahl der Ähre bei freier Bestäubung” value is reported as 61,7, the “Kornzahl der Ähre im Isolator” value is 3,0, the “Prozentsatz der Sterilität” value was 95,2% and the “Prozentsatz des Ansetzens der Körner bei freier Bestäubung” value is 89,4%.

On to `CC1C=CCCC1C(=O)O` (stereo not shown) [Beispiel 41, Kaliumsalz der 2-Methyl-3-zyklohexenkarbon-säure], for which, in test [1], the “Kornzahl der Ähre bei freier Bestäubung” value is listed as 65,1, the “Kornzahl der Ähre im Isolator” value is recorded as 0,1, the “Prozentsatz der Sterilität” value is given as 99,8% and the “Prozentsatz des Ansetzens der Körner bei freier Bestäubung” value is given as 94,3%.

For the molecule `COC(=O)C1CCC=CC1C` (stereo not shown) [Beispiel 42, 2-Methyl-3-zyklohexenkarbonsäuremethylester], in test [1], the “Kornzahl der Ähre bei freier Bestäubung” value is recorded as 64,7, the “Kornzahl der Ähre im Isolator” value was 0,0, the “Prozentsatz der Sterilität” value was 100,0% and the “Prozentsatz des Ansetzens der Körner bei freier Bestäubung” value was 93,8%.

Take `CCCCOC(=O)c1ccccc1C(=O)OCCCC` [Beispiel 68, Phthalsäuredibutylester]: in test [2], the “Kornzahl der Ähre bei freier Bestäubung” value was 48,6, the “Kornzahl der Ähre im Isolator” value is 0,0, the “Prozentsatz der Sterilität” value is reported as 100,0% and the “Prozentsatz des Ansetzens der Körner bei freier Bestäubung” value is on record as 92,7%.

Regarding `CC(C)COC(=O)c1ccccc1C(=O)OCC(C)C` [Beispiel 69, Phthalsäurediisobutylester], in test [2], the “Kornzahl der Ähre bei freier Bestäubung” value is on record as 50,8, the “Kornzahl der Ähre im Isolator” value is 0,2, the “Prozentsatz der Sterilität” value is on record as 99,6% and the “Prozentsatz des Ansetzens der Körner bei freier Bestäubung” value is 96,9%.

With `C=CCOC(=O)c1ccccc1C(=O)OCC=C` [Beispiel 70, Phthalsäurediallylester], in test [2], the “Kornzahl der Ähre bei freier Bestäubung” value is 51,2, the “Kornzahl der Ähre im Isolator” value is listed as 0,1, the “Prozentsatz der Sterilität” value is recorded as 99,8% and the “Prozentsatz des Ansetzens der Körner bei freier Bestäubung” value was 97,7%.

In the case of `CCCCCCOC(=O)c1ccccc1C(=O)OCCCCCC` [Beispiel 71, Phthalsäuredihexylester], in test [2], the “Kornzahl der Ähre bei freier Bestäubung” value is 49,7, the “Kornzahl der Ähre im Isolator” value was 0,0, the “Prozentsatz der Sterilität” value was 100,0% and the “Prozentsatz des Ansetzens der Körner bei freier Bestäubung” value is reported as 94,8%.

As for `COC(=O)C1CCC=CC1C` (stereo not shown) [Beispiel 72, 2-Methyl-3-zyklohexen-karbonsäuremethylester], in test [2], the “Kornzahl der Ähre bei freier Bestäubung” value is listed as 48,0, the “Kornzahl der Ähre im Isolator” value is 0,0, the “Prozentsatz der Sterilität” value was 100,0% and the “Prozentsatz des Ansetzens der Körner bei freier Bestäubung” value is on record as 91,6%.

As to `CC1C=CCCC1C(=O)O` (stereo not shown) [Beispiel 73, Natriumsalz der 2-Methyl-3-zyklohex-enkarbonsäure], in test [2], the “Kornzahl der Ähre bei freier Bestäubung” value is reported as 50,1, the “Kornzahl der Ähre im Isolator” value is recorded as 0,0, the “Prozentsatz der Sterilität” value is listed as 100,0% and the “Prozentsatz des Ansetzens der Körner bei freier Bestäubung” value is 95,6%.

In the case of `CCOC(=O)c1ccccc1C(=O)OCC` [Beispiel 76, Phthalsäurediäthylester], in test [3], the “Kornzahl der Ähre bei freier Bestäubung” value is listed as 53,4, the “Kornzahl der Ähre im Isolator” value is 0,2, the “Prozentsatz der Sterilität” value is recorded as 99,6% and the “Prozentsatz des Ansetzens der Körner bei freier Bestäubung” value is listed as 97,8%.

Consider `CC(C)COC(=O)c1ccccc1C(=O)OCC(C)C` [Beispiel 77, Phthalsaurediisobutylester], for which, in test [3], the “Kornzahl der Ähre bei freier Bestäubung” value is 52,8, the “Kornzahl der Ähre im Isolator” value is listed as 0,0, the “Prozentsatz der Sterilität” value was 100,0% and the “Prozentsatz des Ansetzens der Körner bei freier Bestäubung” value is 96,7%.

As for `CC1C=CCCC1C(=O)O` (stereo not shown) [Beispiel 78, Kaliumsalz der 2-Methyl-3-zyklohexen-karbonsäure], in test [3], the “Kornzahl der Ähre bei freier Bestäubung” value was 52,2, the “Kornzahl der Ähre im Isolator” value was 0,1, the “Prozentsatz der Sterilität” value is reported as 99,8% and the “Prozentsatz des Ansetzens der Körner bei freier Bestäubung” value was 95,6%.

Take `CC1C=CCCC1C(=O)O` (stereo not shown) [Beispiel 79, Ammoniumsalz der 2-Methyl-3-zyklohexenkarbon-säure]: in test [3], the “Kornzahl der Ähre bei freier Bestäubung” value is listed as 51,7, the “Kornzahl der Ähre im Isolator” value is reported as 0,0, the “Prozentsatz der Sterilität” value was 100,0% and the “Prozentsatz des Ansetzens der Körner bei freier Bestäubung” value is listed as 95,0%.

Take `COC(=O)C1CCC=CC1C` (stereo not shown) [Beispiel 80, 2-Methyl-3-zyklohexenkarbonsäuremethylester]: in test [3], the “Kornzahl der Ähre bei freier Bestäubung” value is 50,2, the “Kornzahl der Ähre im Isolator” value is on record as 0,0, the “Prozentsatz der Sterilität” value is on record as 100,0% and the “Prozentsatz des Ansetzens der Körner bei freier Bestäubung” value is 91,9%.

Turning to `C=CCOC(=O)c1ccccc1C(=O)OCC=C` [Beispiel 81, Phthalsaurediallylester], in test [3], the “Kornzahl der Ähre bei freier Bestäubung” value is 53,5, the “Kornzahl der Ähre im Isolator” value was 0,8, the “Prozentsatz der Sterilität” value is given as 98,4% and the “Prozentsatz des Ansetzens der Körner bei freier Bestäubung” value was 97,9%.

On to `CC1C=CCCC1C(=O)O.N` (stereo not shown) [Beispiel 97, Ammoniumsalz der 2-Methyl-3-zyklo-nexenkarbonsäure], for which, in test [4], the “Kornzahl der Rispe bei freier Bestäubung” value is recorded as 121,6, the “Kornzahl der Rispe im Isolator” value is recorded as 0,0, the “Prozentsatz der Sterilität” value is listed as 100,0% and the “Prozentsatz des Ansetzens der Körner bei freier Bestäubung” value was 82,9%.

With `CCCOC(=O)c1ccccc1C(=O)OCCC` [Beispiel 98, Phthalsäuredipropylester], in test [4], the “Kornzahl der Rispe bei freier Bestäubung” value is 130,7, the “Kornzahl der Rispe im Isolator” value was 0,0, the “Prozentsatz der Sterilität” value is 100,0% and the “Prozentsatz des Ansetzens der Körner bei freier Bestäubung” value was 89,1%.

`CCCCOC(=O)c1ccccc1C(=O)OCCCC` [Beispiel 99, Phthalsäuredibutylester]: in test [4], the “Kornzahl der Rispe bei freier Bestäubung” value is given as 127,9, the “Kornzahl der Rispe im Isolator” value is 0,0, the “Prozentsatz der Sterilität” value was 100,0% and the “Prozentsatz des Ansetzens der Körner bei freier Bestäubung” value is on record as 87,9%.

Take `CC(C)COC(=O)c1ccccc1C(=O)OCC(C)C` [Beispiel 100, Phthalsäurediisobutylester]: in test [4], the “Kornzahl der Rispe bei freier Bestäubung” value is listed as 110,4, the “Kornzahl der Rispe im Isolator” value is 0,0, the “Prozentsatz der Sterilität” value is given as 100,0% and the “Prozentsatz des Ansetzens der Körner bei freier Bestäubung” value was 75,3%.

Consider `COC(=O)C1CCC=CC1C` (stereo not shown) [Beispiel 101, 2-Methyl-3-zyklo-hexenkarbonsäuremethylester], for which, in test [4], the “Kornzahl der Rispe bei freier Bestäubung” value was 127,8, the “Kornzahl der Rispe im Isolator” value was 0,0, the “Prozentsatz der Sterilität” value is 100,0% and the “Prozentsatz des Ansetzens der Körner bei freier Bestäubung” value is 87,1%.
